Like-named read-outs stand apart in the source and are kept apart here.
Columns and labels:
[1] = tested on: intracellular T. cruzi Tulahuen LacZ amastigotes; assay: microbe, parasite or virus in culture; format: cell-based, Trypanosoma cruzi
Protocol: (§1) The epimastigote forms of the T. cruzi Tulahuen strain, which expresses the E. coli β-galactosidase gene lacZ [11], were grown in liver infusion tryptone (LIT) supplemented with 10% FCS (Cultilab) and 1% pen/strep (Sigma–Aldrich) at 28°C. Metacyclogenesis from epimastigotes to trypomastigotes was induced by the incubation of the epimastigotes in Grace’s insect medium (Sigma-Aldrich, 28°C) every 5 days. After 5 days, the trypomastigote forms were used to infect the HFF-1 cells. The promastigote forms of L. infantum were maintained in Schneider’s insect medium (Sigma-Aldrich) supplemented with 10% FCS (Cultilab) and 1% pen/strep (Sigma-Aldrich) at 28°C and subcultured every 6 or 7 days.
In vitro assays against T. cruzi were performed as described previously. HFF-1 human fibroblasts were seeded at 4x10^3/well in 96-well tissue culture plates in DMEM (Cultilab) without phenol red and then incubated overnight (37°C, 5% CO2). Next, trypomastigotes were added at 4x10^4/well, and the plates were incubated (37°C, 5% CO2). After 24 h, 2-fold serial dilutions of the test compounds were added at concentrations ranging from 64 to 0.12 μM, and the plates were then incubated (37°C, 5% CO2). Each compound concentration was evaluated in duplicate. All the plates included BZ (64–0.12 μM) (Sigma-Aldrich) as a positive control and untreated wells (100% growth) as a negative control. After 120 h, chlorophenol red β-D-galactopyranoside (CPRG, Sigma-Aldrich) was added to each well. The absorbance was measured at 570 nm in an automated SpectraMax 384 microplate reader (Sunnyvale, CA, USA), and the data were analysed using GraphPad Prism version 8.0 (San Diego, CA, USA) for IC50 value calculation.
(§2) The analyses were performed using GraphPad Prism version 8.0 (GraphPad Software, San Diego, CA, USA). Both the IC50 and CC50 values were calculated by adjusting the sigmoid dose-response curves, and the selectivity index (SI) values were determined by CC50/IC50 [16]. Statistical analyses were performed using one-way ANOVA followed by Dunnett’s multiple comparison test.

in vitro [2] = format: cell-based; details: human, 72 h, MTS
Protocol: (§3) THP-1 (human monocyte cell line) cells were cultivated in RPMI medium supplemented with 10% foetal calf serum (FCS) (Cultilab, Campinas, SP, BR) and 1% penicillin and streptomycin (pen/strep—Sigma-Aldrich) at 37°C under 5% CO2, and HFF-1 (human fibroblast) and HepG2 (hepatocytes) cells were cultivated in DMEM without phenol red (Cultilab) supplemented with 10% FBS (Sigma-Aldrich) and 1% pen/strep at 37°C under 5% CO2.
The cytotoxicity of the compounds against HFF-1 fibroblasts and HepG2 hepatocytes was evaluated using the MTS tetrazolium assay (Promega, Madison, WI, USA). HFF-1 fibroblasts were seeded at 4x10^3/well in 96-well culture plates in DMEM without phenol red and incubated overnight (37°C, 5% CO2). HepG2 hepatocytes were seeded at 7x10^3/well in 96-well culture plates in DMEM (Cultilab) with supplements (10% FCS, 1% pen/strep) and incubated overnight (37°C, 5% CO2). The compounds were added in 2-fold serial dilutions at the same concentrations described before, and the plates were incubated as described before. Each compound concentration was evaluated in duplicate. All the plates included doxorubicin (DOX) (Sigma-Aldrich) as a positive control (10–0.01 μM) and untreated wells as a negative control (100% growth). After 72 h, 15 μL of MTS (Promega) was added, and the plates were incubated for 4 h. The absorbance was measured at 490 nm in an automated SpectraMax 384 microplate reader (Sunnyvale, CA, USA), and the data were analysed using GraphPad Prism version 8.0 for CC50 value calculation. The percentage of nonviable cells was determined and compared to the negative control wells (100% growth).

in vitro [3] = format: cell-based; details: human; 72 h, resazurin; read-out: THP-1 CC50 (μM ± SD)
Protocol: as §3
THP-1 cells were seeded at 2x10^4/well in 96-well culture plates in RPMI 1640 supplemented (10% FCS, 1% pen/strep) and incubated overnight (37°C, 5% CO2). The compounds were added in 2-fold serial dilutions (64–0.12 μM), and the plates were incubated as described before. Each compound concentration was evaluated in duplicate. All the plates included DOX (Sigma-Aldrich) as a positive control (10–0.01 μM) and untreated wells as a negative control (100% growth). After 72 h, 20 μL of resazurin (Sigma-Aldrich) was added, and the plates were incubated for 4 h. The absorbance was measured at 536 and 588 nm in an automated microplate reader SpectraMax Gemini, and the data were analysed using GraphPad Prism version 8.0 for CC50 value calculation. The percentage of nonviable cells was determined and compared to the negative control wells (100% growth).

[4] = tested on: intracellular L. infantum amastigotes; assay: microbe, parasite or virus in culture; format: cell-based, Leishmania infantum
Protocol: as §1
In the intracellular amastigote assay, THP-1 cells were seeded at 2x10^4/well (RPMI-1640, 100 μL) with phorbol 12-myristate 13-acetate (PMA) at 20 ng/mL for differentiation into macrophages. After incubation for 72 h (5% CO2, 37°C), the medium was aspirated, and late-stage L. infantum promastigotes were added (2x10^5/well, 100 μL). Following 24 h of incubation, the medium was aspirated to clear extracellular parasites, and the compounds were added in serial dilutions (2-fold) to final concentrations of 64–0.12 μM. The plates included negative controls (100% growth) and MIL (64–0.12 μM) as a positive control. After 120 h of incubation, the medium was removed, and the cells were fixed in methanol and stained with Giemsa. The average number of intracellular amastigotes per THP-1-cell was determined using an inverted microscope and a cell counter. Growth inhibition is expressed as a percentage of the average number of amastigotes per macrophage in the negative control wells. The IC50 values were obtained using GraphPad Prism version 8.0.
as §2

## O=C(Cn1ccnc1[N+](=O)[O-])NCc1ccccc1 [BZ, benznidazole, reference compound]
[1]; Trypanosoma cruzi, intracellular amastigotes, Tulahuen LacZ, HFF-1 host cells, 120 h, read-out: T. cruzi IC50 (μM ± SD)
  IC50: 5.2 ± 1.87 µM
[1]; selectivity index
  SI^1 (CC50 HFF-1/IC50 T. cruzi): >12.3
In vitro [2]; read-out: HFF-1 CC50 (μM ± SD)
  CC50: > 64 µM

## COc1cccc2c1C(=O)c1c(O)c3c(c(O)c1C2=O)C[C@@](O)(C(=O)CO)C[C@@H]3O[C@H]1C[C@H](N)[C@H](O)[C@H](C)O1 [DOX, doxorubicin, reference compound]
In vitro [2]; read-out: HFF-1 CC50 (μM ± SD)
  CC50: 0.69 ± 0.08 µM
In vitro [2]; read-out: HepG2 CC50 (μM ± SD)
  CC50: 0.24 ± 0.06 µM
In vitro [3]
  CC50: 0.97 ± 0.31 µM

## CCCCCCCCCCCCCCCCOP(=O)([O-])OCC[N+](C)(C)C [MIL, miltefosine, reference compound]
[4]; Leishmania infantum, THP-1, 120 h, intracellular amastigotes in THP-1 macrophages, 120 h, read-out: L. infantum IC50 (μM ± SD)
  IC50: 1.1 ± 0.16 µM
[4]; selectivity index
  SI^2 (CC50 THP-1/IC50 L. infantum): 53.14
In vitro [3]
  CC50: 58.5 ± 5.37 µM

Source: publication PMC9529094, “Identification of natural cytochalasins as leads for neglected tropical diseases drug discovery” (PLoS ONE, 2022)
